The values below come from PMC8151276, “An Integrated Approach toward NanoBRET Tracers for Analysis of GPCR Ligand Engagement” (Molecules, 2021).

Holding throughout (type): binding
For one test, the target named is T1, HTR5A (Homo sapiens, UniProt P47898).
T1 construct: purchased Promega (in-house HiBiT-GPCR construct library, NanoBRET)
Put plainly: NanoBRET screen HiBiT-HTR5A in HEK293. The procedure:
(§1) Each tracer candidate was screened across the entire library of HiBiT-GPCR constructs using NanoBRET as the detection modality. As depicted in Figure 4A, the specificity of interactions was evaluated through decrease in BRET due to competitive displacement of a bound tracer by excess parental compound. Each tracer was analyzed for binding to each HiBiT-GPCR fusion in the absence and in the presence of competing parental compound. Briefly, HEK293 cells were transfected with HiBiT-GPCR constructs diluted into promoterless DNA to reduce expression and maximize translocation to the cell surface. Each tracer candidate was then screened at concentrations of 1 μM and 0.1 μM across cells expressing these fusions. Cells were treated for 1.5 h with tracer either alone or in the presence of 20 μM competing parental compound (i.e., control). BRET was measured upon addition of purified LgBiT and subsequent complementation with HiBiT genetically fused to a GPCR. The specificity of interactions was assessed through a decrease in BRET signal due to competitive displacement of the bound tracer. To further gauge the robustness of these interactions, the fold response over the control (i.e., BRETtracer/BRETcontrol) was calculated. We chose a 1.5-fold response, which translates to ≥7-fold signal over noise as the minimal threshold required to score an interaction as positive. […]. Below we highlight the screening results obtained for our exemplary fluorescent tracers based on Clozapine, Amitriptyline and AZD1283.
(§2) HiBiT-GPCR DNA constructs were diluted in 10 mM Tris pH 8 to a final concentration of 0.01 μg/μL, arrayed in 96-well plates and stored at −20 °C. For transfection, HEK293 cells were suspended in Opti-MEM (without phenol red) supplemented with 2% fetal bovine serum (Seradigm) and 100 units/mL penicillin–streptomycin (Gibco) at a final concentration of 220,000 cells/mL and dispensed into white 96-well plates at 90 μL/well. Subsequent transfections and screens were carried using an Agilent Bravo Automated Liquid Handling Platform. First, the 96-well HiBiT DNA arrays were diluted 25-fold in Opti-MEM (without serum or phenol red) to a final concentration of 0.0004 μg/μL and 20 μL of the diluted DNAs were transferred into new 96-well plates. Next, promoterless carrier DNA (1 μg/μL) was diluted 25-fold (0.04 μg/μL) and then dispensed into the diluted arrays at 20 μL/well. Following brief mixing, Viafect transfection reagent (Promega) diluted 16-fold into Opti-MEM was dispensed into the plates at 40 μL/well. After mixing by pipetting, plates were incubated for 10 min on the pipetting station deck. The DNA-transfection reagent complexes were then added to plates containing cells. To facilitate the screen, 10 μL of DNA-transfection reagent complexes were added in duplicates to the top 4 and bottom 4 rows, resulting in two identical 48-well arrays per plate. Plates with transfected cells were incubated for 18–20 h at 37 °C/5% CO2. A screen of each tracer across the entire library using two different concentrations requires duplicate plates of transfected cells. Depending on the number of tracers being screened, transfections can be scaled up using the same ratios. The next day, for each tracer, four 20× screening solutions in tracer dilution buffer (Promega) were prepared: two duplicates at final concentration of 20 μM and two duplicates at a final concentration of 2 μM. A competing unmodified compound was added to one of each duplicate at a final concentration of 400 μM. The four resulting solutions were diluted 4-fold in Opti-MEM without serum or phenol red to generate 5× solutions (5 µM and 0.5 µM tracer +/− 100 μM competing compound). To screen the library, a BioTek MultiFlo FX liquid dispenser was used to dispense 22.5 µL of tracer solution to the top 4 rows and 22.5 µL tracer + competing compound solution to the 4 bottom rows. Plates were briefly mixed on an orbital shaker and incubated for 1.5 h at room temperature. […]
On the technique in general: BRET reads energy transfer from a luciferase to a nearby fluorophore.

In a further test the target is T2, MC3R (Homo sapiens, UniProt P41968).
T2 construct: purchased Promega (in-house HiBiT-GPCR construct library, NanoBRET)
As to the kind of experiment: NanoBRET screen HiBiT-MC3R in HEK293. The procedure: as §1, §2

For the next test, the target named is T3, GRM5 (Homo sapiens, UniProt P41594).
T3 construct: purchased Promega (in-house HiBiT-GPCR construct library, NanoBRET)
As to the kind of experiment: NanoBRET screen HiBiT-GRM5 in HEK293. The procedure: as §1, §2

The next test has as its target T4, GNRHR (Homo sapiens, UniProt P30968).
T4 construct: purchased Promega (in-house HiBiT-GPCR construct library, NanoBRET)
T4 sequence (P30968 1-328): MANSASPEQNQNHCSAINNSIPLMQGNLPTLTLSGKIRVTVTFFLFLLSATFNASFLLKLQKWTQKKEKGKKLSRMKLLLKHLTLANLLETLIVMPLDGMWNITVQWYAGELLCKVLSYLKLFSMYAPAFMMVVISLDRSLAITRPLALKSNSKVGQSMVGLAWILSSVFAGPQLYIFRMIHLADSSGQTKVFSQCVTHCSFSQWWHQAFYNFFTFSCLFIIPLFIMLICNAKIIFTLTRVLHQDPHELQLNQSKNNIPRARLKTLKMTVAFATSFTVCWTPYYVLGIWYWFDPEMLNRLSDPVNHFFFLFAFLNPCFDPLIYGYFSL
As to the kind of experiment: NanoBRET screen HiBiT-GNRHR in HEK293. The procedure: as §1, §2

Where [1] appears, read: tracer at 0.1μM, listed as amitriptyline-b-2-NB590.
[2] abbreviates: tracer at 1μM, listed as amitriptyline-b-2-NB590.

SMILES strings stand for the structures.

T3 sequence (P41594 21-1212): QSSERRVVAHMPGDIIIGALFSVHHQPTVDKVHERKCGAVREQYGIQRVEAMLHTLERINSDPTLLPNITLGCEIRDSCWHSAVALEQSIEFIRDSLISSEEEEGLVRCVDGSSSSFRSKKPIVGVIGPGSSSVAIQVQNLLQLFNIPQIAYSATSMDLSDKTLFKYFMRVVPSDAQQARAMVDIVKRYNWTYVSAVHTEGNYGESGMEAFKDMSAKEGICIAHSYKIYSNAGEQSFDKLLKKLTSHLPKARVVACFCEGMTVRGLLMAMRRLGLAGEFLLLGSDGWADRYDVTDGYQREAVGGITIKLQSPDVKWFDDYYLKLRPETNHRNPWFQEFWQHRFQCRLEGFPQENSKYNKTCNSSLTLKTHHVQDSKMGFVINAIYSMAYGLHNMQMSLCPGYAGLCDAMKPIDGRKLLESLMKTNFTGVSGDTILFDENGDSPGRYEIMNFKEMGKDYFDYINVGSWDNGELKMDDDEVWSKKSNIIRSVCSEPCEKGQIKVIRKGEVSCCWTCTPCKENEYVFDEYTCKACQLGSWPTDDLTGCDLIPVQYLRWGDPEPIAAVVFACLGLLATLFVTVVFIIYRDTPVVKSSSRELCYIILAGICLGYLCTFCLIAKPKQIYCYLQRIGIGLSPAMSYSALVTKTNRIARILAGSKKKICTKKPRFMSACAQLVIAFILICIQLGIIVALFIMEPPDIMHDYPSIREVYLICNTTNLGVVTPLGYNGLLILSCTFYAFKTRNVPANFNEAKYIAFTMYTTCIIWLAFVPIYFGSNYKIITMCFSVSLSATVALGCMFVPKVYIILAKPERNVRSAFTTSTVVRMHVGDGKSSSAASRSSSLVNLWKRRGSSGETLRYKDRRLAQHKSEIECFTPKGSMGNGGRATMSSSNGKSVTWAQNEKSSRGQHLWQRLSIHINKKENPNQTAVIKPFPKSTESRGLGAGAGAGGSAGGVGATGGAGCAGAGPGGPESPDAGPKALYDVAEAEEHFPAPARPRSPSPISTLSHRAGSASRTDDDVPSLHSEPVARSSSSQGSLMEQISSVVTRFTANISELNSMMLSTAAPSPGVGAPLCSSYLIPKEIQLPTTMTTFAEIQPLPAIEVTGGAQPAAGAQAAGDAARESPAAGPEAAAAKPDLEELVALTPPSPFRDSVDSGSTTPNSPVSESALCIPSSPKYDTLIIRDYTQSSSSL
T1 sequence (P47898 whole entry): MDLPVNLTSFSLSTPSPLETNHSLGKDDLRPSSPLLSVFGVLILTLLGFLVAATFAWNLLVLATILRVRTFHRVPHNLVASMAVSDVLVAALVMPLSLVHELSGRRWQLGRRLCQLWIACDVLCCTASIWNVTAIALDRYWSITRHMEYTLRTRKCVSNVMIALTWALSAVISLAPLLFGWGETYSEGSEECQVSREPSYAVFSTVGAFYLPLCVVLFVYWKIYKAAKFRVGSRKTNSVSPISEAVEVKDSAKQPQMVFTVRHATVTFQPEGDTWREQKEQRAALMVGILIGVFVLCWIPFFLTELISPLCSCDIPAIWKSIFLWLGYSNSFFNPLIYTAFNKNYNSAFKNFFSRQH
T2 sequence (P41968 whole entry): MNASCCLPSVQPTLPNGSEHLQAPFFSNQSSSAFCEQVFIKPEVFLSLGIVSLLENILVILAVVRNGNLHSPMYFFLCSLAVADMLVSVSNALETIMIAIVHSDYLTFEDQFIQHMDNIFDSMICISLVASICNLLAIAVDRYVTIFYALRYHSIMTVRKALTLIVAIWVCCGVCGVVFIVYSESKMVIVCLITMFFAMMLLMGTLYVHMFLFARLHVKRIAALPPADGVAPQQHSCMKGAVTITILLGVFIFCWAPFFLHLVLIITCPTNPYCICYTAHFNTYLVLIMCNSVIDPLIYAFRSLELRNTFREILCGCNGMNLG

In the case of `O=C(CCOCCOCCOCCOCCNC(=O)CCc1ccc2n1[B-](F)(F)[N+]1=C(c3ccc[nH]3)C=CC1=C2)NCCCN1CCN(C2=Nc3cc(Cl)ccc3Nc3ccccc32)CC1` [Clozapine-a-2-NB590], the “NanoBRET Fold Response” value on HTR5A (HTR5A, 0.1μM tracer) is listed as 1.11; at HTR5A (HTR5A, 1μM tracer), 1.29; on MC3R (MC3R, 0.1μM tracer) it was 1.02; on MC3R (MC3R, 1μM tracer), 0.95; on GRM5 (GRM5, 0.1μM tracer), 0.99; on GRM5 (GRM5, 1μM tracer), 1.10. Besides, the “NanoBRET Fold Response” value on GNRHR (GNRHR, 0.1μM tracer) came to 1.02; on GNRHR (GNRHR, 1μM tracer) it was 1.24.

`COc1ccc2[nH]c(-c3ccc(CNC(=O)CCOCCOCCOCCOCCNC(=O)CCc4ccc5n4[B-](F)(F)[N+]4=C(c6ccc[nH]6)C=CC4=C5)cc3)c(CCNC(C)=O)c2n1` [AzomelatoninICO9-2-NB590]: the “NanoBRET Fold Response” value at HTR5A (0.1μM tracer) turned out to be 1.02; on HTR5A (1μM tracer) it was 0.84; on MC3R (0.1μM tracer), 1.02; on MC3R (1μM tracer), 0.72; at GRM5 (0.1μM tracer), 0.97; on GRM5 (1μM tracer) it was 1.03. Besides, the “NanoBRET Fold Response” value on GNRHR (0.1μM tracer) turned out to be 0.61; on GNRHR (1μM tracer), 0.98.

On to `CN1CCN(C2=Nc3cc(Cl)ccc3Nc3ccc(CNC(=O)CCOCCOCCOCCOCCNC(=O)CCc4ccc5n4[B-](F)(F)[N+]4=C(c6ccc[nH]6)C=CC4=C5)cc32)CC1` [Clozapine-b-2-NB590], for which the “NanoBRET Fold Response” value turned out to be 1.07 on HTR5A (HTR5A, 0.1μM tracer); 1.35 on HTR5A (HTR5A, 1μM tracer); 1.05 on MC3R (MC3R, 0.1μM tracer); 0.94 at MC3R (MC3R, 1μM tracer); 0.99 at GRM5 (GRM5, 0.1μM tracer); 1.01 on GRM5 (GRM5, 1μM tracer). In addition, the “NanoBRET Fold Response” value at GNRHR (GNRHR, 0.1μM tracer) came out at 1.06; on GNRHR (GNRHR, 1μM tracer), 1.02.

As to `COc1ccccc1N1CCN(CCCCN2C(=O)c3ccc(CNC(=O)CCOCCNC(=O)c4ccc(CNC(=O)CCc5ccc6n5[B-](F)(F)[N+]5=C(c7ccc[nH]7)C=CC5=C6)cc4)cc3C2=O)CC1` [NAN-190-3-NB590], the “NanoBRET Fold Response” value amounted to 0.99 at HTR5A (HTR5A, tracer 0.1μM); 1.06 at HTR5A (HTR5A, tracer 1μM); 1.10 on MC3R (MC3R, tracer 0.1μM); 0.95 on MC3R (MC3R, tracer 1μM); 1.05 at GRM5 (GRM5, tracer 0.1μM); 1.15 on GRM5 (GRM5, tracer 1μM). For the same molecule, the “NanoBRET Fold Response” value at GNRHR (GNRHR, tracer 0.1μM) is recorded as 1.14; on GNRHR (GNRHR, tracer 1μM) it was 0.97.

As for `N#CN=C(NCCCOc1cccc(CN2CCCCC2)c1)NCCNC(=O)CCOCCOCCOCCOCCNC(=O)CCc1ccc2n1[B-](F)(F)[N+]1=C(c3ccc[nH]3)C=CC1=C2` [Aminopotentidine-2-NB590], the “NanoBRET Fold Response” value on HTR5A (HTR5A, tracer 0.1μM) is 1.00; on HTR5A (HTR5A, tracer 1μM), 0.90; on MC3R (MC3R, tracer 0.1μM), 1.00; on MC3R (MC3R, tracer 1μM), 1.01; at GRM5 (GRM5, tracer 0.1μM) it was 1.01; at GRM5 (GRM5, tracer 1μM), 0.98. In addition, the “NanoBRET Fold Response” value was determined as 1.04 on GNRHR (GNRHR, tracer 0.1μM) and 0.98 at GNRHR (GNRHR, tracer 1μM).

Consider `CN(C)CCC=C1c2ccccc2CCc2ccc(C(=O)NCCNC(=O)CCOCCOCCOCCOCCNC(=O)CCc3ccc4n3[B-](F)(F)[N+]3=C(c5ccc[nH]5)C=CC3=C4)cc21` [Amitriptyline-b-2-NB590], for which the “NanoBRET Fold Response” value at HTR5A (setting [1]) is 1.22; at HTR5A (setting [2]), 1.26; on MC3R (tracer at 0.1μM), 0.98; at MC3R (tracer at 1μM), 0.98; at GRM5 (GRM5, tracer 0.1μM), 1.05; on GRM5 (GRM5, tracer 1μM) it was 1.02. In addition, the entries for the “NanoBRET Fold Response” value at GNRHR (setting [1]) and at GNRHR (setting [2]) were 1.21 and 0.91, respectively.

`COc1ccccc1N1CCN(CCCCN2C(=O)c3ccc(CNC(=O)CCOCCOCCOCCOCCNC(=O)CCc4ccc5n4[B-](F)(F)[N+]4=C(c6ccc[nH]6)C=CC4=C5)cc3C2=O)CC1` [NAN-190-2-NB590]: the “NanoBRET Fold Response” value on HTR5A (HTR5A, tracer 0.1μM) was found to be 0.96; at HTR5A (HTR5A, tracer 1μM), 1.13; at MC3R (MC3R, tracer 0.1μM), 1.03; on MC3R (MC3R, tracer 1μM), 1.00; on GRM5 (GRM5, tracer 0.1μM) it was 0.96; on GRM5 (GRM5, tracer 1μM) it was 1.04. Moreover, the “NanoBRET Fold Response” value at GNRHR (GNRHR, tracer 0.1μM) worked out at 0.98; on GNRHR (GNRHR, tracer 1μM), 0.95.

Take `O=C(CCOCCOCCOCCOCCNC(=O)CCc1ccc2n1[B-](F)(F)[N+]1=C(c3ccc[nH]3)C=CC1=C2)NCCCN1CCN(C2=Nc3ccccc3Oc3ccc(Cl)cc32)CC1` [Loxapine-a-2-NB590]: the “NanoBRET Fold Response” value is listed as 0.97 at HTR5A (HTR5A, tracer 0.1μM); 1.32 on HTR5A (HTR5A, tracer 1μM); 1.00 at MC3R (MC3R, tracer 0.1μM); 1.00 at MC3R (MC3R, tracer 1μM); 1.00 at GRM5 (GRM5, tracer 0.1μM); 1.04 at GRM5 (GRM5, tracer 1μM). The “NanoBRET Fold Response” value was determined as 1.03 on GNRHR (GNRHR, tracer 0.1μM) and 0.89 on GNRHR (GNRHR, tracer 1μM).

In the case of `CCCn1c(=O)c2[nH]c(-c3ccc(OCC(=O)NCCNC(=O)CCOCCNC(=O)c4ccc(CNC(=O)CCc5ccc6n5[B-](F)(F)[N+]5=C(c7ccc[nH]7)C=CC5=C6)cc4)cc3)nc2n(CCC)c1=O` [XAC-3-NB590], the “NanoBRET Fold Response” value worked out at 1.12 on HTR5A (HTR5A, tracer 0.1μM); 0.97 at HTR5A (HTR5A, tracer 1μM); 1.04 at MC3R (MC3R, tracer 0.1μM); 1.10 on MC3R (MC3R, tracer 1μM); 1.01 on GRM5 (GRM5, tracer 0.1μM); 0.98 on GRM5 (GRM5, tracer 1μM). Further, the “NanoBRET Fold Response” value at GNRHR (GNRHR, tracer 0.1μM) is listed as 0.94; at GNRHR (GNRHR, tracer 1μM) it was 0.98.

As to `CCOC(=O)c1cc(C#N)c(N2CCC(C(=O)NS(=O)(=O)Cc3ccccc3/C=C/C(=O)NCCNC(=O)CCc3ccc4n3[B-](F)(F)[N+]3=C(c5ccc[nH]5)C=CC3=C4)CC2)nc1C` [AZD1283-1-NB590], the “NanoBRET Fold Response” value is recorded as 0.97 on HTR5A (HTR5A, 0.1μM); 1.04 at HTR5A (HTR5A, 1μM); 1.00 on MC3R (MC3R, 0.1μM); 0.98 at MC3R (MC3R, 1μM); 1.01 on GRM5 (GRM5, 0.1μM); 0.97 at GRM5 (GRM5, 1μM). The “NanoBRET Fold Response” value on GNRHR (GNRHR, 0.1μM) is given as 1.09; at GNRHR (GNRHR, 1μM) it was 1.08.
